From patent publication US20200278355A1, “CONJUGATED PROTEINS AND USES THEREOF” (THE SCRIPPS RESEARCH INSTITUTE, priority 2017, published 2020)

Experiments:
[1] = biological target: T1, HA-NR0B1-C274V binding to FLAG-SNW1 (Homo sapiens, UniProt P51843, C274V); test: Modified in vitro binding assay: HA-NR0B1-C274V from compound-treated HEK293T cells binding to FLAG-SNW1; assay type: cell-based; settings: HEK293T cells expressing HA-NR0B1-C274V treated with compound, lysate binding to FLAG-SNW1
T1 construct: expressed in transfected cells; host or cells: HEK293T (pRK5-based plasmids)
Experimental: FIG. 5A-FIG. 5G show covalent ligand targeting C274 disrupts NR0B1 protein complexes. […] Percentage of NR0B1 bound to SNW1 was normalized to vehicle (DMSO). A hit compound BPK-26 is marked in red. […] HEK293T cells expressing the indicated proteins were treated with BPK-29 or vehicle (3 h) prior to treatment with BPK-29yne (30 min). Immunoprecipiated proteins were analyzed by in-gel fluorescence-scanning and immunoblotting. […] HEK293T cells expressing HA-NR0B1-WT or HA-NR0B1-C274V proteins were treated with DMSO or BPK-29, after which lysates were generated and evaluated for binding to FLAG-SNW1, as shown in (B).
(§1) FIG. 11A-FIG. 11F illustrate a covalent ligand targeting Cys274 disrupts NR0B1 protein complexes. […] See also FIG. 5C. […] Top: Structures of screening hit BPK-28 and synthesized derivatives. […] FLAG-immunoprecipitates were prepared from each lysate and subjected to proteolytic digestion, whereupon tryptic peptides harboring C274 were analyzed by LC-MS/MS. […] Immunoprecipitates were analyzed by in-gel fluorescence-scanning to assess BPK-29yne labeling or by immunoblot for FLAG-NR0B1. […] In a modified in vitro binding assay shown in FIG. 5B, HEK293T cells expressing HA-NR0B1-WT or an HA-NR0B1-C274V mutant were treated with DMSO or BPK-26 (20 μM, 3 h), after which lysates were and interaction with FLAG-SNW1 assessed. […]

C274 of NR0B1 = biological target: T2, C274 of NR0B1 (Homo sapiens, UniProt P51843); test: Site of labeling by LC-MS/MS of FLAG-NR0B1 tryptic peptides; assay type: binding; settings: BPK-26 100 μM, 3 h in lysate, BPK-29 50 μM, 3 h in HEK293T cells
T2 construct: expressed in transfected cells; host or cells: HEK-293T, transient, pRK5-based vector
Experimental: as §1, with “derivatives. […] The In vitro-binding assay was performed as described in FIG. 5B using compounds at a concentration of 50 μM. Bottom: Data represent mean values±SD normalized to DMSO control. n=4/group. […] Top: Compounds were tested as described in FIG. 5B. Bottom: Graph of concentration-dependent inhibition of NR0B1-SNW1 interactions by the indicated compounds. Percent binding was normalized to vehicle (DMSO). Data represent mean values±SD (n=2-5/group). FIG. 11D and FIG. 11E show NR0B1 ligands BPK-26 (D) and BPK-29 (E) covalently modify C274 in NR0B1. Lysate generate from HEK293T cell expressing FLAG-NR0B1 was treated with DMSO or BPK-26 (100 μM, 3 h, D).” for “derivatives.”

KEAP1-mutant NSCLC cells = test: Colony formation in soft agar, KEAP1-mutant NSCLC cells; assay type: cell-based, human; settings: 5 μM
Text: Based on its in situ activity (FIG. 6D and FIG. 12A, 12G) and selectivity (FIGS. 6A, 6B), BPK-29 was chosen for additional biological studies. […] Exogenous expression of […] the growth inhibition caused by BPK-29.

T1 sequence (P51843 whole entry C274V): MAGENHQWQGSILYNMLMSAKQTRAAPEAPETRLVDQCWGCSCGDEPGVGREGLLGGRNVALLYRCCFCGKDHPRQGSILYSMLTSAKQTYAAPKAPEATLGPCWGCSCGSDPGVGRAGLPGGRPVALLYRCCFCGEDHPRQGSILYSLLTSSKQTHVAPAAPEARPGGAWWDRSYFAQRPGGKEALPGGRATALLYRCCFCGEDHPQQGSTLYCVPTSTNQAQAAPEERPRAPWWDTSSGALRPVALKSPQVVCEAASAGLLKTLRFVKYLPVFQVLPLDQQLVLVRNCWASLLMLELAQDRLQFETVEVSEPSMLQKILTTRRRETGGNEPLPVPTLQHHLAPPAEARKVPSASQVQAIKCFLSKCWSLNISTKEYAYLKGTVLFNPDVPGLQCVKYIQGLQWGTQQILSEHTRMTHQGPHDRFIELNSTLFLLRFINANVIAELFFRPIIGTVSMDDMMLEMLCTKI
T2 sequence (P51843 whole entry): as the sequence (P51843 whole entry C274V) above, with V274C counted along it

| SMILES | sensitivity of the C274V-NR0B1 interaction with SNW1 to ligand [1] | covalent modification of C274 of NR0B1 (C274 of NR0B1) | colony formation in soft agar (KEAP1-mutant NSCLC cells) |
| --- | --- | --- | --- |
| O=C(c1ccc(N2CCOCC2)cc1)N1CCCC(N(Cc2ccccc2)C(=O)CCl)CC1 (stereo not drawn) [BPK-29, N-benzyl-2-chloro-N-(1-(4-morpholinobenzoyl)azepan-4-yl)acetamide] | not sensitive | covalently modified C274 of NR0B1 | blocked colony formation |
| O=C(c1ccc(N2CCOCC2)cc1)N1CCC(CN(C(=O)CCl)c2cncnc2)CC1 [BPK-9, 2-chloro-N-((1-(4-morpholinobenzoyl)piperidin-4-yl)methyl)-N-(pyrimidin-5-yl)acetamide] | – | – | much less of an effect |
| O=C(CCl)N(Cc1cccc(Cl)c1F)c1ccc(Cl)nc1 [BPK-26, 2-chloro-N-(3-chloro-2-fluorobenzyl)-N-(6-chloropyridin-3-yl)acetamide] | not sensitive | covalently modified C274 of NR0B1 | – |
